# Experimental data taken from patent publication US20140024700A1, “BLOOD-BORNE MIRNAS AS SURROGATE MARKERS OF DRUG EFFICACY FOR CARDIAC CONDITIONS” (miRagen Therapeutics, Inc., priority 2010, published 2014).
# Like-named read-outs stand apart in the source and are kept apart here.
# Tested on: plasma miRNAs
# Conditions: 8 weeks
# Description: To evaluate plasma biomarkers over time, surgically implanted catheters were used for non-invasive bi-weekly blood draws in the Dahl salt-sensitive rat model of congestive heart failure described in Example 1. Changes in plasma miRNA biomarkers with disease progression and therapeutic treatment with an LNA-modified antisense oligonucleotide targeting miR-208a (M−10101; SEQ ID NO: 12) were evaluated. The flowing experimental groups were tested:
# The M-10591 oligonucleotide (SEQ ID NO:13) targets miR-67 from C. elegans, which is not expressed in mammalian tissue, and therefore was used as a control. Dahl salt-sensitive rats were implanted with catheters at week zero and baseline blood was taken. Following catheter implant surgery, high-salt diet was initiated. One week following the initiation of the 4.0% NaCl diet, rats were dosed subcutaneously (s.c.) with saline or antimiRs at 25 mg/kg once every 2 weeks. On alternating weeks (non-injection weeks) 1.5 mls of blood was drawn from the catheter for plasma isolation. Animals were sacrificed 8 weeks after the initial injection.
# Plasma and tissue molecular endpoints were evaluated using Taqman RT-PCR assays. Specifically, RNA from plasma samples was isolated using Trizol LS (Invitrogen). Synthetic C. elegans miRNA sequences for lin-4 and miR-2 were added at a constant concentration to each sample to monitor purification efficiency and for normalization. Tissue RNA was isolated using standard Trizol RNA isolation. Standard ABI Taqman miRNA assay protocols were used to determine relative miRNA levels.
# Changes in plasma miRNA levels between rats suffering from hypertension-induced heart failure (H S/saline group) and rats treated with an antimiR-208a oligonucleotide (HS/M-10101) were assessed at 8 weeks by both miRNA Taqman array card analysis (Tables 2 and 3) and real-time PCR analysis (Table 4).
# [1] = Down Regulated, HS-Saline vs. HS-10101, Real Time PCR
# [2] = Up-regulated, HS-Saline vs. HS-10101, Real Time PCR
# [3] = decreased in response to treatment, HS-saline/HS-10101, array card
# [4] = increased in response to treatment, HS-10101/HS-Saline, array card
substance,measurement,setting,value
"M-10101: antimiR targeting bases 2 to 17 of mature miR-208a, LNA and DNA linked by phosphorothioate bonds; 5′-CTTTTTGCTCGTCTTA-3′ (SEQ ID NO: 12) (all phosphorothioate, sugars by position and methylation of C not given here; LNA/DNA mixmer; listed as Homo sapiens)",Fold change of plasma hsa-miR-16,[1],3.45 fold
same,Fold change of plasma hsa-miR-20a,[1],1.92 fold
same,Fold change of plasma hsa-miR-20b,[1],2.10 fold
same,Fold change of plasma hsa-miR-21,[1],1.48 fold
same,Fold change of plasma hsa-miR-22,[1],1.50 fold
same,Fold change of plasma hsa-miR-27a,[1],2.10 fold
same,Fold change of plasma hsa-miR-92a,[1],2.32 fold
same,Fold change of plasma hsa-miR-93,[1],2.87 fold
same,Fold change of plasma hsa-miR-106b,[1],2.57 fold
same,Fold change of plasma hsa-miR-122,[1],1.36 fold
same,Fold change of plasma hsa-miR-126,[1],1.30 fold
same,Fold change of plasma hsa-miR-133a,[1],1.29 fold
same,Fold change of plasma hsa-miR-140,[1],2.13 fold
same,Fold change of plasma hsa-miR-150,[1],2.07 fold
same,Fold change of plasma hsa-miR-185,[1],2.35 fold
same,Fold change of plasma hsa-miR-210,[1],2.31 fold
same,Fold change of plasma hsa-miR-223,[1],3.02 fold
same,Fold change of plasma hsa-miR-320,[1],3.16 fold
same,Fold change of plasma hsa-miR-378,[1],1.74 fold
same,Fold change of plasma hsa-miR-378*,[1],1.38 fold
same,Fold change of plasma hsa-miR-423-5p,[1],2.52 fold
same,Fold change of plasma hsa-miR-499,[1],1.26 fold
same,Fold change of plasma hsa-miR-19b,[2],2.68 fold
same,Fold change of plasma hsa-miR-125a-5p,[2],2.05 fold
same,Fold change of plasma hsa-miR-143,[2],1.53 fold
same,Fold change of plasma hsa-miR-145,[2],2.17 fold
same,Fold change of plasma hsa-miR-195,[2],2.10 fold
same,Fold change of plasma hsa-miR-199b-5p,[2],2.39 fold
same,Fold change of plasma hsa-miR-204,[2],2.18 fold
same,Fold change of plasma hsa-miR-214,[2],1.49 fold
same,Fold change of plasma hsa-let-7b,[3],1.09 fold
same,Fold change of plasma hsa-miR-16,[3],2.04 fold
same,Fold change of plasma hsa-miR-17,[3],1.41 fold
same,Fold change of plasma hsa-miR-18a,[3],2.01 fold
same,Fold change of plasma hsa-miR-20a,[3],2.43 fold
same,Fold change of plasma hsa-miR-20b,[3],4.87 fold
same,Fold change of plasma hsa-miR-24,[3],1.17 fold
same,Fold change of plasma hsa-miR-25,[3],1.33 fold
same,Fold change of plasma hsa-miR-26b,[3],1.98 fold
same,Fold change of plasma hsa-miR-27a,[3],2.74 fold
same,Fold change of plasma hsa-miR-27b,[3],1.18 fold
same,Fold change of plasma hsa-miR-29c,[3],1.34 fold
same,Fold change of plasma hsa-miR-30a,[3],1.28 fold
same,Fold change of plasma hsa-miR-30b,[3],1.21 fold
same,Fold change of plasma hsa-miR-92a,[3],1.20 fold
same,Fold change of plasma hsa-miR-93,[3],2.93 fold
same,Fold change of plasma hsa-miR-101a,[3],1.11 fold
same,Fold change of plasma hsa-miR-103a,[3],1.16 fold
same,Fold change of plasma hsa-miR-106b,[3],2.15 fold
same,Fold change of plasma hsa-miR-122,[3],1.59 fold
same,Fold change of plasma hsa-miR-125b-5p,[3],1.51 fold
same,Fold change of plasma hsa-miR-133a,[3],2.21 fold
same,Fold change of plasma hsa-miR-140-5p,[3],3.23 fold
same,Fold change of plasma hsa-miR-148a,[3],2.49 fold
same,Fold change of plasma hsa-miR-181c,[3],1.37 fold
same,Fold change of plasma hsa-miR-182,[3],1.39 fold
same,Fold change of plasma hsa-miR-184,[3],1.42 fold
same,Fold change of plasma hsa-miR-185,[3],7.02 fold
same,Fold change of plasma hsa-miR-188-5p,[3],1.76 fold
same,Fold change of plasma hsa-miR-192,[3],1.92 fold
same,Fold change of plasma hsa-miR-195,[3],1.73 fold
same,Fold change of plasma hsa-miR-197,[3],1.52 fold
same,Fold change of plasma hsa-miR-199a-5p,[3],4.95 fold
same,Fold change of plasma hsa-miR-203,[3],1.13 fold
same,Fold change of plasma hsa-miR-218,[3],1.32 fold
same,Fold change of plasma hsa-miR-222,[3],1.11 fold
same,Fold change of plasma hsa-miR-223,[3],1.88 fold
same,Fold change of plasma hsa-miR-301a,[3],1.79 fold
same,Fold change of plasma hsa-miR-320a,[3],1.89 fold
same,Fold change of plasma hsa-miR-324-5p,[3],1.39 fold
same,Fold change of plasma hsa-miR-335-5p,[3],1.07 fold
same,Fold change of plasma hsa-miR-340-5p,[3],1.19 fold
same,Fold change of plasma hsa-miR-365,[3],2.61 fold
same,Fold change of plasma hsa-miR-423-5p,[3],4.18 fold
same,Fold change of plasma hsa-miR-451,[3],3.28 fold
same,Fold change of plasma hsa-miR-484,[3],1.46 fold
same,Fold change of plasma hsa-miR-486-5p,[3],1.49 fold
same,Fold change of plasma hsa-miR-542-3p,[3],11.10 fold
same,Fold change of plasma hsa-miR-744,[3],1.83 fold
same,Fold change of plasma hsa-let-7c,[4],1.54 fold
same,Fold change of plasma hsa-let-7e,[4],1.66 fold
same,Fold change of plasma hsa-let-7g,[4],3.02 fold
same,Fold change of plasma hsa-let-7d,[4],1.98 fold
same,Fold change of plasma hsa-miR-19a,[4],1.90 fold
same,Fold change of plasma hsa-miR-19b,[4],3.27 fold
same,Fold change of plasma hsa-miR-26a,[4],1.39 fold
same,Fold change of plasma hsa-miR-28,[4],6.61 fold
same,Fold change of plasma hsa-miR-29a,[4],1.31 fold
same,Fold change of plasma hsa-miR-29b,[4],2.67 fold
same,Fold change of plasma hsa-miR-30c,[4],1.37 fold
same,Fold change of plasma hsa-miR-30e,[4],1.06 fold
same,Fold change of plasma hsa-miR-31,[4],1.45 fold
same,Fold change of plasma hsa-miR-99b,[4],2.63 fold
same,Fold change of plasma hsa-miR-107,[4],5.54 fold
same,Fold change of plasma hsa-miR-125a-3p,[4],12.16 fold
same,Fold change of plasma hsa-miR-125a-5p,[4],5.34 fold
same,Fold change of plasma hsa-miR-126,[4],1.27 fold
same,Fold change of plasma hsa-miR-126-5p (miR-126*),[4],2.01 fold
same,Fold change of plasma hsa-miR-128a,[4],1.75 fold
same,Fold change of plasma hsa-miR-130a,[4],2.30 fold
same,Fold change of plasma hsa-miR-130b,[4],1.26 fold
same,Fold change of plasma hsa-miR-138,[4],1.08 fold
same,Fold change of plasma hsa-miR-139-5p,[4],1.14 fold
same,Fold change of plasma hsa-miR-142-3p,[4],25.04 fold
same,Fold change of plasma hsa-miR-142-5p,[4],1.98 fold
same,Fold change of plasma hsa-miR-143,[4],8.47 fold
same,Fold change of plasma hsa-miR-145,[4],2.07 fold
same,Fold change of plasma hsa-miR-146a,[4],1.17 fold
same,Fold change of plasma hsa-miR-152,[4],2.05 fold
same,Fold change of plasma hsa-miR-155,[4],1.73 fold
same,Fold change of plasma hsa-miR-181a,[4],3.00 fold
same,Fold change of plasma hsa-miR-186,[4],1.83 fold
same,Fold change of plasma hsa-miR-187,[4],1.60 fold
same,Fold change of plasma hsa-miR-191,[4],1.23 fold
same,Fold change of plasma hsa-miR-196b,[4],11.73 fold
same,Fold change of plasma hsa-miR-199a-3p,[4],3.14 fold
same,Fold change of plasma hsa-miR-204,[4],4.61 fold
same,Fold change of plasma hsa-miR-214,[4],1.57 fold
same,Fold change of plasma hsa-miR-296-5p,[4],18.29 fold
same,Fold change of plasma hsa-miR-302a,[4],2.10 fold
same,Fold change of plasma hsa-miR-324-3p,[4],1.07 fold
same,Fold change of plasma hsa-miR-331-3p,[4],1.53 fold
same,Fold change of plasma hsa-miR-339-5p,[4],2.18 fold
same,Fold change of plasma hsa-miR-340-3p,[4],1.86 fold
same,Fold change of plasma hsa-miR-342-3p,[4],1.15 fold
same,Fold change of plasma hsa-miR-375,[4],1.32 fold
same,Fold change of plasma hsa-miR-449a,[4],2.99 fold
same,Fold change of plasma hsa-miR-487b,[4],2.67 fold
same,Fold change of plasma hsa-miR-532-3p,[4],1.72 fold
same,Fold change of plasma hsa-miR-574-3p,[4],2.20 fold
same,Fold change of plasma hsa-miR-30d,[4],1.29 fold
